Experimental data as given in patent publication US7700786B2, “Pyrazole derivative, intermediate therefor, processes for producing these, and herbicide containing these as active ingredient” (Sagami Chemical Research Center, priority 2001, dated 2010).

melting point [°C]	Structure (SMILES)
58 to 60	Cc1cc(Oc2ncc(C(F)(F)F)cc2Cl)nn1C(=O)N(C(C)C)C(C)C [Compound 4-27, N,N-diisopropyl-3-(3-chloro-5-trifluoromethylpyridin-2-yloxy)-5-methylpyrazole-1-carboxamide]
169 to 171	CCNC(=O)n1nc(Oc2c([N+](=O)[O-])cc([N+](=O)[O-])cc2C(F)(F)F)cc1C
109 to 111	Cc1c(Cl)c(Oc2c(Cl)cc(C(F)(F)F)cc2Cl)nn1C(=O)NC(C)C [Example 249, N-isopropyl-4-chloro-3-(2,6-dichloro-4-trifluoromethylphenyloxy)-5-methylpyrazole-1-carboxamide]
102 to 104	CNC(=O)n1nc(Oc2ccc(C(F)(F)F)cc2[N+](=O)[O-])cc1C(F)(F)F
93 to 94	CNC(=O)n1nc(Oc2ccc(C(F)(F)F)cc2N)cc1C [Example 242, N-methyl-3-(2-amino-4-trifluoromethylphenyloxy)-5-methylpyrazole-1-carboxamide]
88 to 90	CCNC(=O)n1nc(Oc2c(Cl)cc(C(F)(F)F)cc2Cl)cc1C(=O)OC [Example 175, methyl 3-(2,6-dichloro-4-trifluoromethylphenyloxy)-1 (N-ethylcarbamoyl)pyrazole-5-carboxylate]
88 to 89	CCNC(=O)n1nc(Oc2c(Cl)cc(C(F)(F)F)cc2Cl)cc1-c1ccc(Cl)cc1 [Example 176, N-ethyl-5-(4-chlorophenyl)-3-(2,6-dichloro-4-trifluoromethylphenyloxy)pyrazole-1-carboxamide]
85 to 87	CCc1cc(Oc2ncc(C(F)(F)F)cc2Cl)nn1C(=O)NC
96 to 98	Cc1cc(Oc2ccc([N+](=O)[O-])c(C(F)(F)F)c2)n[nH]1 [Compound 1-42, 5-methyl-3-(4-nitro-3-trifluoromethylphenyloxy)pyrazole]
153 to 155	Cc1cc(Oc2c(Cl)cc(C(F)(F)F)cc2Cl)n[nH]1 [Compound 1-17, 3-(2,6-dichloro-4-trifluoromethylphenyloxy)-5-methylpyrazole]
111 to 112	CCNC(=O)n1nc(Oc2ncc(C(F)(F)F)cc2Cl)c(Cl)c1C [Compound 4-67, N-ethyl-4-chloro-3-(3-chloro-5-trifluoromethylpyridin-2-yloxy)-5-methylpyrazole-1-carboxamide]
123 to 125	CCNC(=O)n1nc(Oc2ncc(C(F)(F)F)cc2Cl)c(Br)c1C [Compound 4-78, N-ethyl-4-bromo-3-(3-chloro-5-trifluoromethylpyridin-2-yloxy)-5-methylpyrazole-1-carboxamide]
120 to 123	Cc1cc(Oc2c(Cl)cc(C(F)(F)F)cc2[N+](=O)[O-])n[nH]1 [Compound 1-21, 3-(2-chloro-6-nitro-4-trifluoromethylphenyloxy)-5-methylpyrazole]
90 to 92	C=CNC(=S)n1nc(Oc2ncc(C(F)(F)F)cc2Cl)cc1C [Compound 4-41, N-vinyl-3-(3-chloro-5-trifluoromethylpyridin-2-yloxy)-5-methylpyrazole-1-carbothioamide]
117 to 119	CNC(=O)n1nc(Oc2ccc(C(F)(F)F)cc2[N+](=O)[O-])c(C)c1C
123 to 124	CCOc1cc(Oc2cc(C)[nH]n2)ccc1[N+](=O)[O-] [Compound 1-6, 3-(3-ethoxy-4-nitrophenyloxy)-5-methylpyrazole]
113 to 114	CNC(=O)n1nc(Oc2c(Cl)cc(C(F)(F)F)cc2Cl)cc1C
84 to 86	CCc1c(Oc2ncc(C(F)(F)F)cc2Cl)nn(C(=O)NC)c1C
89 to 91	CCCNC(=O)n1nc(Oc2c(Cl)cc(C(F)(F)F)cc2Cl)cc1C(Cl)(Cl)Cl [Example 250, N-propyl-3-(2,6-dichloro-4-trifluoromethylphenyloxy)-5-trichloromethylpyrazole-1-carboxamide]
123 to 125	Cc1cc(Oc2ccc(C#N)cc2C(F)(F)F)n[nH]1 [Compound 1-30, 3-(4-cyano-2-trifluoromethylphenyloxy)-5-methylpyrazole]
103 to 105	CCNC(=O)n1nc(Oc2ccc(C#N)cc2C(F)(F)F)cc1C [Example 95, N-ethyl-3-(4-cyano-2-trifluoromethylphenyloxy)-5-methylpyrazole-1-carboxamide]
105 to 107	CCNC(=O)n1nc(Oc2ccc([N+](=O)[O-])cc2)cc1C [Example 54, N-ethyl-5-methyl-3-(4-nitrophenyloxy)pyrazole-1-carboxamide]
101 to 102	Cc1cc(Oc2cccc(C(F)(F)F)c2)nn1C(=O)NCC1CCCO1 (stereo not shown) [Example 199, N-tetrahydrofurfuryl-5-methyl-3-(3-trifluoromethylphenyloxy)pyrazole-1-carboxamide]
78 to 80	Cc1c(Oc2ncc(C(F)(F)F)cc2Cl)nn(C(=O)NC(C)C)c1C [Compound 4-82, N-isopropyl-3-(3-chloro-5-trifluoromethylpyridin-2-yloxy)-4,5-dimethylpyrazole-1-carboxamide]
74 to 76	CCNC(=O)n1nc(Oc2ncc(Cl)cc2Cl)cc1C [Compound 4-15, N-ethyl-3-(3,5-dichloropyridin-2-yloxy)-5-methylpyrazole-1-carboxamide]

melting point [°C]	Structure (SMILES)
52 to 54	CCNC(=O)n1nc(Oc2ncc(C(F)(F)F)cc2Cl)cc1C(F)(F)F [Compound 4-93, N-ethyl-3-(3-chloro-5-trifluoromethylpyridin-2-yloxy)-5-trifluoromethylpyrazole-1-carboxamide]
81 to 84	Cc1cc(Oc2ccc(F)cc2[N+](=O)[O-])n[nH]1 [Compound 1-29, 3-(4-fluoro-2-nitrophenyloxy)-5-methylpyrazole]
85 to 86	CCNC(=O)n1nc(Oc2ncc(C(F)(F)F)cc2Cl)cc1CC [Compound 4-88, N-ethyl-3-(3-chloro-5-trifluoromethylpyridin-2-yloxy)-5-ethylpyrazole-1-carboxamide]
141 to 143	Cc1c(Cl)c(Oc2c(Cl)cc(C(F)(F)F)cc2Cl)nn1C(=O)NCCCl
96 to 97	CCc1c(Oc2ccc([N+](=O)[O-])cc2C(F)(F)F)nn(C(=O)NC)c1C
93 to 95	Cc1cc(Oc2ncc(C(F)(F)F)cc2Cl)n[nH]1 [Compound 2-5, 3-(3-chloro-5-trifluoromethylpyridin-2-yloxy)-5-methylpyrazole]
73 to 75	CCNC(=O)n1nc(Oc2cc(OCC)ccc2[N+](=O)[O-])cc1C [Example 99, N-ethyl-3-(5-ethoxy-2-nitrophenyloxy)-5-methylpyrazole-1-carboxamide]
61 to 63	CNC(=O)n1nc(Oc2ncc(C(F)(F)F)cc2Cl)cc1C(F)(F)F [Compound 4-91, N-methyl-3-(3-chloro-5-trifluoromethylpyridin-2-yloxy)-5-trifluoromethylpyrazole-1-carboxamide]
143 to 145	Cc1cc(Oc2ccc(N)cc2C(F)(F)F)n[nH]1 [Compound 1-37, 3-(4-amino-2-trifluoromethylphenyloxy)-5-methylpyrazole]
98 to 99	CCNC(=O)n1nc(Oc2c(Cl)cc(C(F)(F)F)cc2[N+](=O)[O-])cc1C [Example 126, N-ethyl-3-(2-chloro-6-nitro-4-trifluoromethylphenyloxy)-5-methylpyrazole-1-carboxamide]
87 to 88	CNC(=O)n1nc(Oc2c(F)cc(C(F)(F)F)cc2Cl)cc1C
89 to 90	COCNC(=S)n1nc(Oc2ccc(C#N)cc2C(F)(F)F)cc1C [Example 177, N-methoxymethyl-3-(4-cyano-2-trifluoromethylphenyloxy)-5-methylpyrazole-1-carbothioamide]
156 to 158	Cc1[nH]nc(Oc2c(Cl)cc(C(F)(F)F)cc2Cl)c1Cl [Compound 1-18, 4-chloro-3-(2,6-dichloro-4-trifluoromethylphenyloxy)-5-methylpyrazole]
97 to 100	CCc1cc(Oc2ccc([N+](=O)[O-])cc2C(F)(F)F)nn1C(=O)NC
86 to 88	CCCCCCNC(=O)n1nc(Oc2c(Cl)cc(C(F)(F)F)cc2Cl)c(Cl)c1C [Example 246, N-hexyl-4-chloro-3-(2,6-dichloro-4-trifluoromethylphenyloxy)-5-methylpyrazole-1-carboxamide]
67 to 69	CCNC(=O)n1nc(Oc2ccc([N+](=O)[O-])c(C)c2)cc1C [Example 96, N-ethyl-5-methyl-3-(3-methyl-4-nitrophenyloxy)pyrazole-1-carboxamide]
89 to 91	Cc1c(Cl)c(Oc2ccc(C(F)(F)F)cc2[N+](=O)[O-])nn1C(=O)NC(C)C [Example 243, N-isopropyl-4-chloro-5-methyl-3-(2-nitro-4-trifluoromethylphenyloxy)pyrazole-1-carboxamide]
113 to 115	CNC(=O)n1nc(Oc2ccc([N+](=O)[O-])cc2C(F)(F)F)c(C)c1C
145 to 147	Cc1cc(Oc2c([N+](=O)[O-])cc([N+](=O)[O-])cc2C(F)(F)F)n[nH]1
102 to 104	CCNC(=O)n1nc(Oc2ccc(N)c(C(F)(F)F)c2)cc1C [Example 100, N-ethyl-3-(4-amino-3-trifluoromethylphenyloxy)-5-methylpyrazole-1-carboxamide]
110 to 112	CCNC(=O)n1nc(Oc2ccc([N+](=O)[O-])c(OCC)c2)cc1C [Example 98, N-ethyl-3-(3-ethoxy-4-nitrophenyloxy)-5-methylpyrazole-1-carboxamide]
95 to 96	COCNC(=S)n1nc(Oc2c(Cl)cc(C(F)(F)F)cc2Cl)cc1C [Example 178, N-methoxymethyl-3-(2,6-dichloro-4-trifluoromethylphenyloxy)-5-methylpyrazole-1-carbothioamide]
102 to 104	CCNC(=O)n1nc(Oc2c(F)cc(C(F)(F)F)cc2F)cc1C [Example 124, N-ethyl-3-(2,6-difluoro-4-trifluoromethylphenyloxy)-5-methylpyrazole-1-carboxamide]
124 to 125	Cc1cc(Oc2ccc([N+](=O)[O-])cc2)n[nH]1 [Compound 1-47, 5-methyl-3-(4-nitrophenyloxy)pyrazole]
